Assay results reported in ChEMBL document CHEMBL3351431, “Synthesis and evaluation of C2-carbon-linked heterocyclic-5-hydroxy-6-oxo-dihydropyrimidine-4-carboxamides as HIV-1 integrase inhibitors” (Bioorg Med Chem Lett, 2015).

How the values were obtained:
[1] = target: Human immunodeficiency virus type 1 integrase (Human immunodeficiency virus 1, UniProt Q7ZJM1); experiment: Inhibition of HIV-1 integrase strand transfer activity
[2] = tested on: Human immunodeficiency virus 1; experiment: Antiviral activity against HIV1 infected in cell culture in presence of 10% FBS; assay type: functional, organism-based
[3] = tested on: Human immunodeficiency virus 1; experiment: Antiviral activity against HIV1 infected in cell culture in presence of 45 mg/ml human serum albumin and 10% FBS; assay type: functional, organism-based
[4] = Clearance in Sprague-Dawley rat at 1 mg/kg, iv; assay type: ADME, organism-based; parameters: dose 1 mg/kg, route intravenous; conditions: in vivo
[5] = Half life in Sprague-Dawley rat at 1 mg/kg, iv; assay type: ADME, organism-based; parameters: dose 1 mg/kg, route intravenous; conditions: in vivo
[6] = Volume of distribution at steady state in Sprague-Dawley rat at 1 mg/kg, iv; assay type: ADME, organism-based; parameters: dose 1 mg/kg, route intravenous; conditions: in vivo, read-out: Vdss
[7] = Cmax in Sprague-Dawley rat at 5 mg/kg, po; assay type: ADME, organism-based; parameters: dose 5 mg/kg, route oral; conditions: in vivo
[8] = Tmax in Sprague-Dawley rat at 5 mg/kg, po; assay type: ADME, organism-based; parameters: dose 5 mg/kg, route oral; conditions: in vivo
[9] = AUC in Sprague-Dawley rat at 5 mg/kg, po; assay type: ADME, organism-based; parameters: dose 5 mg/kg, route oral; conditions: plasma
[10] = Oral bioavailability in Sprague-Dawley rat at 5 mg/kg; assay type: ADME, organism-based; conditions: in vivo

Chain of Human immunodeficiency virus type 1 integrase (Q7ZJM1 whole entry): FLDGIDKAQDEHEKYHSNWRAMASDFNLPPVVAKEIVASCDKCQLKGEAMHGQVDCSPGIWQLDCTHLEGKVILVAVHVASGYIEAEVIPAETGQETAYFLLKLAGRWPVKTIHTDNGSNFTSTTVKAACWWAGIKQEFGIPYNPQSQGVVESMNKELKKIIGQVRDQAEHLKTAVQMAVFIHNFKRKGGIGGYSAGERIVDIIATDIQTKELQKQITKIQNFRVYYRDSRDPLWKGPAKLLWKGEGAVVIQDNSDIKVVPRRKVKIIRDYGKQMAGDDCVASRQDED

Row | Structure (SMILES) | IC50 [1] | EC50 [2] | EC50 [3] | clearance [4] | half-life [5] | Vd [6] | Cmax [7] | Tmax [8] | AUC [9] | bioavailability [10]
1 | Cn1c(C2(C)CCCO2)nc(C(=O)NCc2ccc(F)cc2)c(O)c1=O (racemic) | 5 nM | 10 nM | 120 nM |  |  |  |  |  |  | 
2 | Cn1c(C2CCOC2)nc(C(=O)NCc2ccc(F)cc2)c(O)c1=O (racemic) | 4 nM | 9 nM | 60 nM | 4.9 mL/min/kg | 97.8 min | 0.14 L/kg | 10.5 µM | 40.2 min | 33.9 µM·h | 68%
3 | Cn1c(C2COCC2O)nc(C(=O)NCc2ccc(F)cc2)c(O)c1=O (racemic) | 6 nM | 48 nM | 126 nM |  |  |  |  |  |  | 
4 | Cn1c(C2=CCOC2)nc(C(=O)NCc2ccc(F)cc2)c(O)c1=O | 19 nM | 206 nM | 1780 nM |  |  |  |  |  |  | 
5 | Cc1cnnn1-c1cc(F)ccc1CNC(=O)c1nc(C2CCOC2)n(C)c(=O)c1O (racemic) | 10 nM | 13 nM | 28 nM |  |  |  |  |  |  | 
6 | Cn1c(C2(C)CCCS2)nc(C(=O)NCc2ccc(F)cc2)c(O)c1=O (racemic) | 5 nM | 15 nM | 153 nM |  |  |  |  |  |  | 
7 | Cn1c(C2CCOC2)nc(C(=O)NCc2ccc(F)cc2-n2cncn2)c(O)c1=O (racemic) | 4 nM | 7 nM | 18 nM | 47 mL/min/kg | 25.2 min | 0.98 L/kg |  |  |  | 
8 | Cn1ncnc1-c1cc(F)ccc1CNC(=O)c1nc(C2CCOCC2)n(C)c(=O)c1O | 9 nM | 4 nM | 7 nM |  |  |  |  |  |  | 
9 | Cn1c(C2CCOCC2)nc(C(=O)NCc2ccc(F)cc2)c(O)c1=O | 5 nM | 6 nM | 28 nM | 2.6 mL/min/kg | 34.8 min | 0.12 L/kg |  |  |  | 
10 | Cn1cnnc1-c1cc(F)ccc1CNC(=O)c1nc(C2CCOC2)n(C)c(=O)c1O (racemic) | 18 nM | 28 nM | 27 nM |  |  |  |  |  |  | 
11 | CN(C)S(=O)(=O)c1cc(F)ccc1CNC(=O)c1nc(C2CCOC2)n(C)c(=O)c1O (racemic) | 10 nM | 4 nM | 25 nM |  |  |  |  |  |  | 
12 | Cn1ncnc1-c1cc(F)ccc1CNC(=O)c1nc(C2CCOC2)n(C)c(=O)c1O (racemic) | 6 nM | 5 nM | 11 nM | 12 mL/min/kg | 30 min | 0.36 L/kg |  |  |  | 
13 | Cn1c(-c2ccco2)nc(C(=O)NCc2ccc(F)cc2)c(O)c1=O | 21 nM | 424 nM | 14500 nM |  |  |  |  |  |  | 
14 | Cc1ncnn1-c1cc(F)ccc1CNC(=O)c1nc(C2CCOC2)n(C)c(=O)c1O (racemic) | 12 nM | 14 nM | 18 nM | 37 mL/min/kg | 13.8 min | 0.76 L/kg |  |  |  | 
15 | CSC1COCC1c1nc(C(=O)NCc2ccc(F)cc2)c(O)c(=O)n1C (racemic) | 3 nM | 7 nM | 33 nM | 3.6 mL/min/kg | 64.8 min | 0.15 L/kg | 8.04 µM | 100 min | 39.5 µM·h | 67%
16 | Cn1c(C2CCCCO2)nc(C(=O)NCc2ccc(F)cc2)c(O)c1=O (racemic) | 10 nM | 49 nM | 301 nM |  |  |  |  |  |  | 

Results, then the compound that gave them:

Row | IC50 [1] | EC50 [2] | EC50 [3] | clearance [4] | half-life [5] | Vd [6] | Cmax [7] | Tmax [8] | AUC [9] | bioavailability [10] | Structure (SMILES)
17 | 16 nM | 2 nM | 22 nM | 31 mL/min/kg | 14.4 min | 0.36 L/kg |  |  |  |  | Cn1c(C2CCOC2)nc(C(=O)NCc2ccc(F)cc2N2CCN(C(C)(C)C)S2(=O)=O)c(O)c1=O (racemic)
18 | 11 nM | 4 nM | 11 nM |  |  |  |  |  |  |  | Cn1c(C2CCOCC2)nc(C(=O)NCc2ccc(F)cc2N2CCCCS2(=O)=O)c(O)c1=O
19 | 8 nM | 9 nM | 14 nM |  |  |  |  |  |  |  | Cc1ncnn1-c1cc(F)ccc1CNC(=O)c1nc(C2CCOCC2)n(C)c(=O)c1O
20 | 9 nM | 5 nM | 19 nM | 6 mL/min/kg | 32.4 min | 0.2 L/kg | 3.51 µM | 37.8 min | 12.3 µM·h | 60% | Cn1c(C2CCOC2)nc(C(=O)NCc2ccc(F)cc2N2CCCCS2(=O)=O)c(O)c1=O (racemic)
21 | 17 nM | 2 nM | 7 nM | 41 mL/min/kg | 13.2 min | 0.61 L/kg |  |  |  |  | Cn1c(C2CCOCC2)nc(C(=O)NCc2ccc(F)cc2N2CCN(C(C)(C)C)S2(=O)=O)c(O)c1=O
22 | 6 nM | 2 nM | 7 nM |  |  |  |  |  |  |  | CN1C(C)(C)CN(c2cc(F)ccc2CNC(=O)c2nc(C3CCOCC3)n(C)c(=O)c2O)S1(=O)=O
23 | 6 nM | 10 nM | 18 nM |  |  |  |  |  |  |  | Cn1c(C2CCOCC2)nc(C(=O)NCc2ccc(F)cc2-n2cncn2)c(O)c1=O
24 | 10 nM | 2 nM | 22 nM |  |  |  |  |  |  |  | CN1C(C)(C)CN(c2cc(F)ccc2CNC(=O)c2nc(C3CCOC3)n(C)c(=O)c2O)S1(=O)=O (racemic)
25 | 8 nM | 6 nM | 13 nM | 3.9 mL/min/kg | 34.8 min | 0.13 L/kg |  |  |  |  | Cn1c(C2CCOCC2)nc(C(=O)NCc2ccc(F)cc2S(C)(=O)=O)c(O)c1=O
26 | 3 nM | 5 nM | 27 nM | 15 mL/min/kg | 27.6 min | 0.44 L/kg |  |  |  |  | COCCN1CCN(c2cc(F)ccc2CNC(=O)c2nc(C3CCOC3)n(C)c(=O)c2O)C1=O (racemic)
27 | 6 nM | 7 nM | 30 nM |  |  |  |  |  |  |  | CN1CCN(c2cc(F)ccc2CNC(=O)c2nc(C3CCOC3)n(C)c(=O)c2O)C1=O (racemic)
28 | 9 nM | 14 nM | 33 nM |  |  |  |  |  |  |  | Cn1c(C2CCOC2)nc(C(=O)NCc2ccc(F)cc2S(C)(=O)=O)c(O)c1=O (racemic)
29 | 12 nM | 4 nM | 15 nM |  |  |  |  |  |  |  | CN(C)S(=O)(=O)c1cc(F)ccc1CNC(=O)c1nc(C2CCOCC2)n(C)c(=O)c1O
30 | 13 nM | 8 nM | 18 nM |  |  |  |  |  |  |  | Cc1cnnn1-c1cc(F)ccc1CNC(=O)c1nc(C2CCOCC2)n(C)c(=O)c1O
